According to PMC7156736, “Phase 1 study of the pan-HER inhibitor dacomitinib plus the MEK1/2 inhibitor PD-0325901 in patients with KRAS-mutation-positive colorectal, non-small-cell lung and pancreatic cancer” (British Journal of Cancer, 2020):
Where two headings read alike, the source gives them in different places.

Legend:
[1] = tested on: HER2/HER3; set-up: method as in unpublished data; conditions: ref unpublished data; cited from earlier work
[2] = tested on: patients with KRASm CRC, NSCLC or pancreatic cancer; type: in vivo; conditions: dacomitinib QD continuous, PD-0325901 BID 21 days on/7 days off
Excerpt: . The starting doses were based on previous data from single-agent Phase 1 studies with both compounds, taking into account the potential for synergistic toxicity. […]. Dose-escalation decisions were based on safety evaluation of all evaluable patients, performed after completion of the first treatment cycle. Patients were considered evaluable for the dose-determining part of this study if at least one cycle of study treatment was completed, with the minimum safety evaluation conducted, and at least one administration of both drugs received, or if dose-limiting toxicity (DLT) had occurred during the first cycle. If one out of three patients experienced a DLT, the number of patients treated at that dose level was expanded to a maximum of six. […] Patients were continuing study treatment until disease progression, unacceptable toxicity or investigator/patient decision to discontinue.
Safety was monitored throughout the treatment by physical examination, laboratory assessments, electrocardiography, ophthalmic evaluation and collection of adverse events. Adverse events were recorded according to the Common Terminology Criteria for Adverse Events version 4.0. All adverse events that were possible, probable or definite related to study drug were considered as study/treatment related. […]

[3] = plasma pharmacokinetics in patients (HPLC–MS/MS, non-compartmental analysis); type: in vivo, human; conditions: for AUC(0-t) / Cmax / Tmax: human, plasma, oral; for AUC(0-t): read-out: AUC0-24h dacomitinib, mean (CV%); for Cmax: read-out: Cmax dacomitinib, mean (CV%); for Tmax: read-out: tmax dacomitinib, mean
Protocol: For pharmacokinetic analyses, serial blood samples were obtained from all patients prior to treatment administration on day 1, and 1, 2, 3, 4, 6, 8, 12, 24, 72 and 144 h after the first dose. On day 1 of cycle 2, blood samples were drawn before and 1, 2, 3, 4, 6, 8, 12 and 24 h after administration. Plasma samples were assayed using a validated high-performance liquid chromatography– tandem mass spectrometry method (HPLC–MS/MS). Briefly, dacomitinib and PD-0325901 were extracted from plasma by protein precipitation with a mixture of acetonitrile/methanol (1:1 v/v). Compounds were chromatographically separated using a Waters Xbridge BEH Phenyl column (50 ×2.1-mm ID, 5-μm particle size), and detection was performed using an API4000 tandem mass spectrometer equipped with a turbo ion spray interface, operating in the positive ion mode. Transitions from m/z 480 to 329 and m/z 489 to 255 were monitored for the detection of dacomitinib and PD-0325901, respectively. Stable isotope-labelled internal standards were used for the quantification. The lower and upper limits of quantification were, respectively, 0.5 and 50 ng/ml for dacomitinib, and 5 and 500 ng/ml for PD-0325901. Pharmacokinetic parameters were calculated in R using an in-house-developed validated script for non-compartmental pharmacokinetic analyses (version 3.6.0).[9]

[4] = tested on: HER1; conditions: human catalytic domain of HER1; read-out: in vitro IC50; cited from earlier work
[5] = tested on: HER4; conditions: human catalytic domain of HER4; read-out: in vitro IC50; cited from earlier work
[6] = tested on: HER2; conditions: human catalytic domain of HER2; read-out: in vitro IC50; cited from earlier work
[7] = 15 mg, All 15 mg doses, Cycle 1 Day 1, n = 23
[8] = 15 mg, All 15 mg doses, Cycle 2 Day 1, n = 18
[9] = 30 mg, All 30 mg doses, Cycle 1 Day 1, n = 17
[10] = 30 mg, All 30 mg doses, Cycle 2 Day 1 or last day of concomitant use, n =11
[11] = Dose-level 1: dacomitinib 30 mg QD + PD-0325901 2 mg BID, Cycle 1 Day 1, n = 6
[12] = Dose-level 1: dacomitinib 30 mg QD + PD-0325901 2 mg BID, Cycle 2 Day 1, n = 6
[13] = Dose-level 2: dacomitinib 15 mg QD + PD-0325901 3 mg BID, Cycle 1 Day 1, n = 6
[14] = Dose-level 2: dacomitinib 15 mg QD + PD-0325901 3 mg BID, Cycle 2 Day 1, n = 5
[15] = Dose-level 3: dacomitinib 15 mg QD + PD-0325901 4 mg BID, Cycle 1 Day 1, n = 2
[16] = Dose-level 3: dacomitinib 15 mg QD + PD-0325901 4 mg BID, Cycle 2 Day 1, n = 2
[17] = Dose-level 4: dacomitinib 15 mg QD + PD-0325901 5 mg BID, Cycle 1 Day 1, n = 3
[18] = Dose-level 4: dacomitinib 15 mg QD + PD-0325901 5 mg BID, Cycle 2 Day 1, n = 3
[19] = Dose-level 5: dacomitinib 15 mg QD + PD-0325901 6 mg BID, Cycle 1 Day 1, n = 8
[20] = Dose-level 5: dacomitinib 15 mg QD + PD-0325901 6 mg BID, Cycle 2 Day 1, n = 5
[21] = Dose-level 6: dacomitinib 30 mg (4/3) QD + PD-0325901 6 mg BID, Cycle 1 Day 1, n = 3
[22] = Dose-level 6: dacomitinib 30 mg (4/3) QD + PD-0325901 6 mg BID, last day of concomitant use of both drugs, n = 1
[23] = Dose-level 7: dacomitinib 30 mg (5/2) QD + PD-0325901 6 mg (5/2) BID, Cycle 1 Day 1, n = 3
[24] = Dose-level 7: dacomitinib 30 mg (5/2) QD + PD-0325901 6 mg (5/2) BID, last day of concomitant use of both drugs, n = 2
[25] = Dose-level 8: dacomitinib 30 mg (5/2) QD + PD-0325901 5 mg (5/2) BID, Cycle 1 Day 1, n = 5
[26] = Dose-level 8: dacomitinib 30 mg (5/2) QD + PD-0325901 5 mg (5/2) BID, last day of concomitant use of both drugs, n=2
[27] = Dose-level -1: dacomitinib 15 mg QD + PD-0325901 2 mg BID, Cycle 1 Day 1, n = 4
[28] = Dose-level -1: dacomitinib 15 mg QD + PD-0325901 2 mg BID, Cycle 2 Day 1, n = 3

For COc1cc2ncnc(Nc3ccc(F)c(Cl)c3)c2cc1NC(=O)/C=C/CN1CCCCC1 [dacomitinib], the “IC50 for HER2/HER3 inhibition (preclinical target plasma concentration)” value [1] is listed as 0.022 µg/mL, the “recommended Phase 2 dose (RP2D) / established maximum dose level in the combination with continuous dacomitinib dosing” value [2] is listed as 15 mg and the “plasma concentration versus preclinical target of 22 ng/ml” value ([3]; 15 mg dacomitinib doses, for a substantial number of patients) is listed as “did not exceed the preclinical target”. For the same compound, the “increase of exposure with dose” value ([3]; across dose levels) was “approximately dose-proportionally”, the AUC(0-t) [3, 7] was 122 ng·h/mL and the Cmax [3, 7] was 8.6 ng/mL. It also gave a Tmax [3, 7] of 7.6 h, an AUC(0-t) [3, 8] of 616 ng·h/mL and a Cmax [3, 8] of 31.2 ng/mL. For the same compound, the Tmax [3, 8] was 7.2 h, the AUC(0-t) [3, 9] was 250 ng·h/mL and the Cmax [3, 9] was 16 ng/mL. The Tmax [3, 9] was 8.3 h, the AUC(0-t) [3, 10] was 909 ng·h/mL and the Cmax [3, 10] was 51.7 ng/mL. For the same compound, the Tmax [3, 10] was 4.8 h, the AUC(0-t) [3, 11] was 318 ng·h/mL and the Cmax [3, 11] was 19.2 ng/mL. For the same compound, the Tmax [3, 11] was 7.5 h, the AUC(0-t) [3, 12] was 888 ng·h/mL and the Cmax [3, 12] was 47.4 ng/mL. It also gave a Tmax [3, 12] of 7.6 h, an AUC(0-t) [3, 13] of 112 ng·h/mL and a Cmax [3, 13] of 6.7 ng/mL. The Tmax [3, 13] was 8.7 h, the AUC(0-t) [3, 14] was 549 ng·h/mL and the Cmax [3, 14] was 26 ng/mL. It also gave a Tmax [3, 14] of 9.6 h, an AUC(0-t) [3, 15] of 45 ng·h/mL and a Cmax [3, 15] of 2.5 ng/mL. It also gave a Tmax [3, 15] of 12 h, an AUC(0-t) [3, 16] of 262 ng·h/mL and a Cmax [3, 16] of 25.7 ng/mL. It also gave a Tmax [3, 16] of 2 h, an AUC(0-t) [3, 17] of 137 ng·h/mL and a Cmax [3, 17] of 8.5 ng/mL. The Tmax [3, 17] was 4.7 h, the AUC(0-t) [3, 18] was 654 ng·h/mL and the Cmax [3, 18] was 33.5 ng/mL. For the same compound, the Tmax [3, 18] was 5 h, the AUC(0-t) [3, 19] was 136 ng·h/mL and the Cmax [3, 19] was 11.4 ng/mL. The Tmax [3, 19] was 7.9 h, the AUC(0-t) [3, 20] was 747 ng·h/mL and the Cmax [3, 20] was 37.3 ng/mL. The Tmax [3, 20] was 4.4 h, the AUC(0-t) [3, 21] was 159 ng·h/mL and the Cmax [3, 21] was 11.1 ng/mL. For the same compound, the Tmax [3, 21] was 7.3 h, the AUC(0-t) [3, 22] was 647 ng·h/mL and the Cmax [3, 22] was 32 ng/mL. It also gave a Tmax [3, 22] of 8 h, an AUC(0-t) [3, 23] of 290 ng·h/mL and a Cmax [3, 23] of 19.1 ng/mL. It also gave a Tmax [3, 23] of 13.3 h, an AUC(0-t) [3, 24] of 658 ng·h/mL and a Cmax [3, 24] of 37.5 ng/mL. For the same compound, the Tmax [3, 24] was 4.5 h, the AUC(0-t) [3, 25] was 200 ng·h/mL and the Cmax [3, 25] was 14.2 ng/mL. For the same compound, the Tmax [3, 25] was 6.6 h, the AUC(0-t) [3, 26] was 789 ng·h/mL and the Cmax [3, 26] was 55.9 ng/mL. It also gave a Tmax [3, 26] of 4.5 h, an AUC(0-t) [3, 27] of 126 ng·h/mL and a Cmax [3, 27] of 7.9 ng/mL. For the same compound, the Tmax [3, 27] was 5.6 h, the AUC(0-t) [3, 28] was 513 ng·h/mL and the Cmax [3, 28] was 26.3 ng/mL. The Tmax [3, 28] was 11 h, the “increase of mean Cmax and AUC0–24h after multiple dosing (accumulation)” value ([3]; patients, combination treatment) was 3- to 5 fold and the IC50 [4] was 6 nM. For the same compound, the IC50 [5] was 74 nM and the IC50 [6] was 45.7 nM.
